Assay [1] concerns the target ERα in MCF7 cells (Homo sapiens (Human), UniProt P03372). Put plainly: Test C: estrogen receptor degradation activity, ERα in cell western assay in MCF7 cells. It is filed as cell-based. Particulars: for DC50: 4 hours post compound addition, ERα in cell western, read-out: Degradation IC50; for % Degradation at 3 μM: 4 hours, relative to fulvestrant. An outline of the steps: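 Steps: seed MCF7 in phenol red-free medium containing 5% charcoal-dextran stripped FBS; next day add compound, final 3–0.000018 μM; after 4 h fix with 5% formalin plus 0.1% Triton; stain ERα overnight, then secondary at 37 °C for 60 min with Syto-64 at 2 μM; scan green and red intensities.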

Assay [2] has as its system MCF7 cells expressing mutant estrogen receptor Tyr 537 Ser. As to the kind of experiment: Test B: cell proliferation/viability assay (CellTiter-Glo) on MCF7 Tyr 537 Ser mutant. It is filed as cell-based. Particulars: MCF7 cells expressing ER Tyr 537 Ser mutant, 7 days of compound exposure, read-out: proliferation MCF7 Y537S IC50. An outline of the steps:
(§1)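 Compound exposure lasted 7 days (3-0.000001 μM final, 9 points) in phenol red-free MEM with 5% charcoal dextran-stripped FBS. The mutant lines grew without estradiol. Luminescent signal, minus medium-only background, was expressed as percent of untreated cells.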
Background: Cellular ATP, detected with luciferase, serves as a proxy for viable cell number.

In assay [3] the test system is MCF7 cells (breast tumor cells) WT. Put plainly: Test B: cell proliferation/viability assay (CellTiter-Glo) on MCF7 WT. It is filed as cell-based. Particulars: 7 days of compound exposure. An outline of the steps: as §1
Assay [4] has as its system MCF7 cells expressing mutant estrogen receptor Asp 538 Gly. As to the kind of experiment: Test B: cell proliferation/viability assay (CellTiter-Glo) on MCF7 Asp 538 Gly mutant. Particulars: MCF7 cells expressing ER Asp 538 Gly mutant, 7 days of compound exposure, read-out: proliferation MCF7 D538G IC50. The class given is cell-based. An outline of the steps: as §1
Assay [5] addresses His6-ERα298-554 WT (ERα ligand-binding domain) (Homo sapiens (Human), UniProt P03372). Put plainly: Test A: biochemical antagonist activity, LanthaScreen TR-FRET ERα coactivator assay, WT. Conditions: read-out: Antagonism WT IC50. An outline of the steps: (§2)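 TR-FRET 520:495 nm emission ratio read after overnight room-temperature incubation; IC50 derived by 4-parameter logistic fit. Mix: 0.5 nM receptor LBD, 0.5 nM Tb-His6 antibody, 250 nM PGC1a peptide, 3 nM or 10 nM estradiol, pH 7.4 phosphate buffer.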
In general terms: Time-resolved FRET reads energy transfer from a long-lived donor to a nearby acceptor.

For assay [6], the target named is His6-ERα298-554 Y537S mutant (ERα ligand-binding domain) (Homo sapiens (Human), UniProt P03372, Y537S). As to the kind of experiment: Test A: biochemical antagonist activity, LanthaScreen TR-FRET ERα coactivator assay, Y537S mutant. Conditions: read-out: Antagonism Y537S IC50. The method in brief: as §2
His6-ERα298-554 Y537S mutant (ERα ligand-binding domain), sequence (P03372 298-554 Y537S): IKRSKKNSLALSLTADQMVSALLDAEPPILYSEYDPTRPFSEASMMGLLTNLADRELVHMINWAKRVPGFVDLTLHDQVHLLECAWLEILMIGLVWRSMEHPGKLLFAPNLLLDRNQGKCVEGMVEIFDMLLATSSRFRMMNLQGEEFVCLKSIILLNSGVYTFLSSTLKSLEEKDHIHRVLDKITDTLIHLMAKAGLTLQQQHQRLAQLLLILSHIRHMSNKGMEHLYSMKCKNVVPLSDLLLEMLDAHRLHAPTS
For assay [7], the target named is His6-ERα298-554 D538G mutant (ERα ligand-binding domain) (Homo sapiens (Human), UniProt P03372, D538G). Put plainly: Test A: biochemical antagonist activity, LanthaScreen TR-FRET ERα coactivator assay, D538G mutant. Particulars: read-out: Antagonism D538G IC50. The method in brief:
as §2

Where [8] appears, read: asterisk (*): protocol using 10 nM estradiol.

Like-named read-outs stand apart in the source and are kept apart here.

His6-ERα298-554 D538G mutant (ERα ligand-binding domain), sequence (P03372 298-554 D538G): as the sequence (P03372 298-554 Y537S) above, with S240Y, D241G counted along it
His6-ERα298-554 WT (ERα ligand-binding domain), sequence (P03372 298-554): as the sequence (P03372 298-554 Y537S) above, with S240Y counted along it
ERα in MCF7 cells, sequence (P03372 whole entry): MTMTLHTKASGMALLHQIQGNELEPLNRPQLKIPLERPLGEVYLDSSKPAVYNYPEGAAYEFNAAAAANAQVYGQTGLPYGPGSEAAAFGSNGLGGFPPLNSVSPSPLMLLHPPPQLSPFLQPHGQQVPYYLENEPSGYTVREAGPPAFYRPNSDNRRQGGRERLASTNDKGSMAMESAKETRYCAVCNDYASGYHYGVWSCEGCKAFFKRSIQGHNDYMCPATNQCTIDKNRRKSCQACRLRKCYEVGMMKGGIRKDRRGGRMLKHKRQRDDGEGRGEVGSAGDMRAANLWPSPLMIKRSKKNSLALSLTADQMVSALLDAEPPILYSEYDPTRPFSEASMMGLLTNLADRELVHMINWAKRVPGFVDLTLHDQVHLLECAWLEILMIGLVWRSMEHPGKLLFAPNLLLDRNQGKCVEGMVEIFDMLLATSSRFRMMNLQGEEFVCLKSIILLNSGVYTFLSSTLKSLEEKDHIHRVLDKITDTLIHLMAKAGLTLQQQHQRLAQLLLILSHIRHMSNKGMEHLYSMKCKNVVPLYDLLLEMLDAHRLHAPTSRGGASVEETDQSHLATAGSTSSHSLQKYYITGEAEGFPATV

`CCOc1ccc(C2=C(c3ccc(O[C@H]4CCN(CCCF)C4)cc3)c3ccc(O)cc3SC2)c(F)c1F` [Example 41, 3-(4-ethoxy-2,3-difluoro-phenyl)-4-[4-[(3S)-1-(3-fluoropropyl)pyrrolidin-3-yl]oxyphenyl]-2H-thiochromen-7-ol]: the DC50 in assay [1] was 1 nM. In addition, in assay [1], the “% Degradation at 3 μM” value worked out at 85%. The IC50 in assay [2] (Homo sapiens, MCF7, 168 h) is 4 nM; in assay [3] (Homo sapiens, MCF7, 168 h), 0.9 nM; in assay [4] (Homo sapiens, MCF7, 168 h), 1 nM; in assay [5] (setting [8]), 27 nM; in assay [6] (setting [8]) it was 407 nM; in assay [7] (setting [8]), 740 nM.

For `CCOc1ccc(C2=C(c3ccc(O[C@H]4CCN(CCCF)C4)cc3)c3ccc(O)cc3SC2)c(F)c1Cl` [Example 63, 3-(3-chloro-4-ethoxy-2-fluoro-phenyl)-4-[4-[(3S)-1-(3-fluoropropyl)pyrrolidin-3-yl]oxyphenyl]-2H-thiochromen-7-ol], in assay [1], the DC50 was 0.3 nM. Also, the “% Degradation at 3 μM” value in assay [1] turned out to be 86%. For the same molecule, the IC50 in assay [2] (Homo sapiens, MCF7, 168 h) is over 999 nM; in assay [3] (Homo sapiens, MCF7, 168 h), 5 nM; in assay [4] (Homo sapiens, MCF7, 168 h) it was 5 nM; in assay [5] (setting [8]), 318 nM; in assay [6] (setting [8]) it was 2450 nM; in assay [7] (setting [8]) it was over 4000 nM.

With `[O-][S+]1CCC(c2ccc(OC(F)(F)F)cc2)=C(c2ccc(O[C@H]3CCN(CCCF)C3)cc2)c2ccc(O)cc21` (single isomer, unassigned) [Example 226], in assay [1], the DC50 was determined as 103 nM. Besides, in assay [1], the “% Degradation at 3 μM” value turned out to be 93%. Moreover, the IC50 in assay [2] was over 999 nM; in assay [3] it was 87 nM; in assay [4], 288 nM; in assay [5] (setting [8]) it was over 4000 nM; in assay [6] (setting [8]), over 4000 nM; in assay [7] (setting [8]), over 4000 nM.

For the molecule `Cc1cc(C2=C(c3ccc(O[C@H]4CCN(CCCF)C4)cc3)c3ccc(O)cc3SC2)ccc1Cl` [Example 17, 3-(4-chloro-3-methyl-phenyl)-4-[4-[(3S)-1-(3-fluoropropyl)pyrrolidin-3-yl]oxyphenyl]-2H-thiochromen-7-ol], the DC50 in assay [1] was found to be 2 nM. Also, in assay [1], the “% Degradation at 3 μM” value is given as 87%. Further, the IC50 was found to be 3 nM in assay [2] (Homo sapiens, MCF7, 168 h); 0.4 nM in assay [3] (Homo sapiens, MCF7, 168 h); 1 nM in assay [4] (Homo sapiens, MCF7, 168 h); 7 nM in assay [5] (protocol with 3 nM estradiol); 14 nM in assay [6] (protocol with 3 nM estradiol); 39 nM in assay [7] (protocol with 3 nM estradiol).

For `Oc1ccc2c(c1)CCCC(c1ccc(SC(F)(F)F)cc1)=C2c1ccc(N[C@H]2CCN(CCCF)C2)cc1` [Example 90, 5-[4-[[(3S)-1-(3-fluoropropyl)pyrrolidin-3-yl]amino]phenyl]-6-[4-(trifluoromethylsulfanyl)phenyl]-8,9-dihydro-7H-benzo[7]annulen-2-ol], the DC50 in assay [1] was 0.4 nM. Further, the “% Degradation at 3 μM” value in assay [1] is recorded as 91%. Further, the IC50 in assay [2] (Homo sapiens, MCF7, 168 h) came to 4 nM; in assay [3] (Homo sapiens, MCF7, 168 h), 0.3 nM; in assay [4] (Homo sapiens, MCF7, 168 h), 0.5 nM; in assay [5] (setting [8]) it was 12 nM; in assay [6] (setting [8]), 165 nM; in assay [7] (setting [8]), 293 nM.

Values taken from patent US11149031B2, “Substituted N-(3-fluoropropyl)-pyrrolidine compounds, processes for their preparation and therapeutic uses thereof” (SANOFI, priority 2016, dated 2021).
